Measurements as given in ChEMBL document CHEMBL1671617, “Correlation of antimicrobial resistance with beta-lactamases, the OmpA-like porin, and efflux pumps in clinical isolates of Acinetobacter baumannii endemic to New York City” (2008).
Values after ≈ are worked out from the molar mass of the structure shown.

Legend:
Type in all cases: functional
[1] = test system: Acinetobacter baumannii; assay: Antimicrobial activity against ISAba1 linked with the blaOXA-51-type beta-lactamase harboring Acinetobacter baumannii alpha clonal group isolate 1 expressing ampC, ompA, adeB, adeM by Etest method
[2] = test system: Acinetobacter baumannii; assay: Antimicrobial activity against Acinetobacter baumannii alpha clonal group isolate 2 expressing ampC, ompA, adeB, adeM, aacC1, aadA1 by Etest method
[3] = test system: Acinetobacter baumannii; assay: Antimicrobial activity against Acinetobacter baumannii alpha clonal group isolate 3 expressing ampC, ompA, adeB, adeM, aacC1, aadA1 by Etest method
[4] = test system: Acinetobacter baumannii; assay: Antimicrobial activity against Acinetobacter baumannii alpha clonal group isolate 4 expressing ampC, ompA, adeB, adeM, aacC1, aadA1 by Etest method
[5] = test system: Acinetobacter baumannii; assay: Antimicrobial activity against Acinetobacter baumannii alpha clonal group isolate 5 expressing ampC, ompA, adeB, adeM, aacC1, aadA1 by Etest method
[6] = test system: Acinetobacter baumannii; assay: Antimicrobial activity against ISAba1 linked with the blaOXA-51-type beta-lactamase harboring Acinetobacter baumannii alpha clonal group isolate 6 expressing ampC, ompA, adeB, adeM, aacC1, aadA1 by Etest method
[7] = test system: Acinetobacter baumannii; assay: Antimicrobial activity against ISAba1 linked with the blaOXA-51-type beta-lactamase harboring Acinetobacter baumannii alpha clonal group isolate 7 expressing ampC, ompA, adeB, adeM, blaSHV-5 by Etest method
[8] = test system: Acinetobacter baumannii; assay: Antimicrobial activity against ISAba1 linked with the blaOXA-51-type beta-lactamase harboring Acinetobacter baumannii alpha clonal group isolate 8 expressing ampC, ompA, adeB, adeM, aacC1, aadA1 by Etest method
[9] = test system: Acinetobacter baumannii; assay: Antimicrobial activity against ISAba1 linked with the blaOXA-51-type beta-lactamase harboring Acinetobacter baumannii beta clonal group isolate 9 expressing ampC, ompA, adeB, adeM by Etest method
[10] = test system: Acinetobacter baumannii; assay: Antimicrobial activity against ISAba1 linked with the blaOXA-51-type beta-lactamase harboring Acinetobacter baumannii beta clonal group isolate 10 expressing ompA, adeB, adeM, aacA4, blaSHV-5 by Etest method
[11] = test system: Acinetobacter baumannii; assay: Antimicrobial activity against ISAba1 linked with the blaOXA-51-type beta-lactamase harboring Acinetobacter baumannii beta clonal group isolate 11 expressing ompA, adeB, adeM, blaSHV-5 by Etest method
[12] = test system: Acinetobacter baumannii; assay: Antimicrobial activity against ISAba1 linked with the blaOXA-51-type beta-lactamase harboring Acinetobacter baumannii beta clonal group isolate 12 expressing ompA, adeB, adeM, aacA4, aacC2, blaSHV-5 by Etest method
[13] = test system: Acinetobacter baumannii; assay: Antimicrobial activity against ISAba1 linked with the blaOXA-51-type beta-lactamase harboring Acinetobacter baumannii beta clonal group isolate 13 expressing ompA, adeB, adeM, aacA4, blaSHV-5 by Etest method
[14] = test system: Acinetobacter baumannii; assay: Antimicrobial activity against ISAba1 linked with the blaOXA-51-type beta-lactamase harboring Acinetobacter baumannii beta clonal group isolate 14 expressing ompA, adeB, adeM, aacA4, blaSHV-5 by Etest method
[15] = test system: Acinetobacter baumannii; assay: Antimicrobial activity against ISAba1 linked with the blaOXA-51-type beta-lactamase harboring Acinetobacter baumannii beta clonal group isolate 15 expressing ompA, adeB, adeM, aacA4, blaSHV-5 by Etest method
[16] = test system: Acinetobacter baumannii; assay: Antimicrobial activity against ISAba1 linked with the blaOXA-51-type beta-lactamase harboring Acinetobacter baumannii beta clonal group isolate 16 expressing ompA, adeB, adeM, aacA4, blaSHV-5 by Etest method
[17] = test system: Acinetobacter baumannii; assay: Antimicrobial activity against ISAba1 linked with the blaOXA-51-type beta-lactamase harboring Acinetobacter baumannii beta clonal group isolate 17 expressing ompA, adeB, adeM, aacA4, blaSHV-5 by Etest method
[18] = test system: Acinetobacter baumannii; assay: Antimicrobial activity against ISAba1 linked with the blaOXA-51-type beta-lactamase harboring Acinetobacter baumannii beta clonal group isolate 18 expressing ompA, adeB, adeM, aacA4, blaSHV-5 by Etest method
[19] = test system: Acinetobacter baumannii; assay: Antimicrobial activity against ISAba1 linked with the blaOXA-51-type beta-lactamase harboring Acinetobacter baumannii zeta clonal group isolate 19 expressing ampC, ompA, adeB, adeM, aacC2 by Etest method
[20] = test system: Acinetobacter baumannii; assay: Antimicrobial activity against ISAba1 linked with the blaOXA-51-type beta-lactamase harboring Acinetobacter baumannii zeta clonal group isolate 20 expressing ampC, ompA, adeB, adeM, aacC2 by Etest method
[21] = test system: Acinetobacter baumannii; assay: Antimicrobial activity against ISAba1 linked with the blaOXA-51-type beta-lactamase harboring Acinetobacter baumannii zeta clonal group isolate 21 expressing ampC, ompA, adeB, adeM, aacC2, blaSHV-5 by Etest method
[22] = test system: Acinetobacter baumannii; assay: Antimicrobial activity against ISAba1 linked with the blaOXA-51-type beta-lactamase harboring Acinetobacter baumannii zeta clonal group isolate 22 expressing ampC, ompA, adeB, adeM, aadA1, aacA4, aacC2, blaSHV-5 by Etest method
[23] = test system: Acinetobacter baumannii; assay: Antimicrobial activity against ISAba1 linked with the blaOXA-51-type beta-lactamase harboring Acinetobacter baumannii zeta clonal group isolate 23 expressing ampC, ompA, adeB, adeM, aadA1, aacA4, aacC2, aphA6 by Etest method
[24] = test system: Acinetobacter baumannii; assay: Antimicrobial activity against ISAba1 linked with the blaOXA-51-type beta-lactamase harboring Acinetobacter baumannii zeta clonal group isolate 24 expressing ampC, ompA, adeB, adeM, aadA1, aacA4, aacC2, blaSHV-5 by Etest method
[25] = test system: Acinetobacter baumannii; assay: Antimicrobial activity against ISAba1 linked with the blaOXA-51-type beta-lactamase harboring Acinetobacter baumannii zeta clonal group isolate 25 expressing ampC, ompA, adeB, adeM, aadA1, aacA4, aacC2, blaSHV-5 by Etest method
[26] = test system: Acinetobacter baumannii; assay: Antimicrobial activity against ISAba1 linked with the blaOXA-51-type beta-lactamase harboring Acinetobacter baumannii zeta clonal group isolate 26 expressing ampC, ompA, adeB, adeM, aadA1, aacA4, aacC2, blaSHV-5 by Etest method
[27] = test system: Acinetobacter baumannii; assay: Antimicrobial activity against Acinetobacter baumannii lambda clonal group isolate 27 expressing ampC, ompA, adeB, adeM, aadB, aadA1 by Etest method
[28] = test system: Acinetobacter baumannii; assay: Antimicrobial activity against ISAba1 linked with the blaOXA-51-type beta-lactamase harboring Acinetobacter baumannii lambda clonal group isolate 28 expressing ampC, ompA, adeM, aadB, aadA1 by Etest method
[29] = test system: Acinetobacter baumannii; assay: Antimicrobial activity against ISAba1 linked with the blaOXA-51-type beta-lactamase harboring Acinetobacter baumannii lambda clonal group isolate 29 expressing ampC, ompA, adeM, aadB, aadA1 by Etest method
[30] = test system: Acinetobacter baumannii; assay: Antimicrobial activity against ISAba1 linked with the blaOXA-51-type beta-lactamase harboring Acinetobacter baumannii lambda clonal group isolate 30 expressing ampC, ompA, adeB, adeM, aadB, aadA1 by Etest method
[31] = test system: Acinetobacter baumannii; assay: Antimicrobial activity against Acinetobacter baumannii nu clonal group isolate 31 expressing ampC, ompA, adeB, adeM, aadB, aadA2 by Etest method
[32] = test system: Acinetobacter baumannii; assay: Antimicrobial activity against Acinetobacter baumannii nu clonal group isolate 32 expressing ampC, ompA, adeB, adeM, aadB, aadA2 by Etest method
[33] = test system: Acinetobacter baumannii; assay: Antimicrobial activity against Acinetobacter baumannii nu clonal group isolate 33 expressing ampC, ompA, adeB, adeM by Etest method
[34] = test system: Acinetobacter baumannii; assay: Antimicrobial activity against Acinetobacter baumannii nu clonal group isolate 34 expressing ampC, ompA, adeB, adeM by Etest method
[35] = test system: Acinetobacter baumannii; assay: Antimicrobial activity against Acinetobacter baumannii eta clonal group isolate 35 expressing ampC, ompA, adeB, adeM by Etest method
[36] = test system: Acinetobacter baumannii; assay: Antimicrobial activity against Acinetobacter baumannii eta clonal group isolate 36 expressing ampC, ompA, adeB, adeM by Etest method
[37] = test system: Acinetobacter baumannii; assay: Antimicrobial activity against Acinetobacter baumannii unique clonal group isolate 37 expressing ampC, ompA, adeB, adeM by Etest method
[38] = test system: Acinetobacter baumannii; assay: Antimicrobial activity against Acinetobacter baumannii unique clonal group isolate 38 expressing ampC, ompA, adeB, adeM by Etest method
[39] = test system: Acinetobacter baumannii; assay: Antimicrobial activity against Acinetobacter baumannii unique clonal group isolate 39 expressing ampC, ompA, adeM by Etest method
[40] = test system: Acinetobacter baumannii; assay: Antimicrobial activity against ISAba1 linked with the blaOXA-51-type beta-lactamase harboring Acinetobacter baumannii unique clonal group isolate 40 expressing ampC, ompA, adeB, adeM, aadA1, aacA4, aacC2, blaSHV-5 by Etest method

SMILES	MIC [1] [µg/mL]	MIC [2] [µg/mL]	MIC [3] [µg/mL]	MIC [4] [µg/mL]	MIC [5] [µg/mL]	MIC [6] [µg/mL]	MIC [7] [µg/mL]	MIC [8] [µg/mL]	MIC [9] [µg/mL]	MIC [10] [µg/mL]	MIC [11] [µg/mL]	MIC [12] [µg/mL]	MIC [13] [µg/mL]	MIC [14] [µg/mL]	MIC [15] [µg/mL]	MIC [16] [µg/mL]	MIC [17] [µg/mL]	MIC [18] [µg/mL]	MIC [19] [µg/mL]	MIC [20] [µg/mL]	also measured
C[C@@H](O)[C@H]1C(=O)N2C(C(=O)O)=C(S[C@@H]3CN[C@H](C(=O)N(C)C)C3)[C@H](C)[C@H]12 [MEROPENEM]	4 (≈ 10.4 µM)	1.5 (≈ 3.91 µM)	1.5 (≈ 3.91 µM)	1.5 (≈ 3.91 µM)	1.5 (≈ 3.91 µM)	12 (≈ 31.3 µM)	> 32	24 (≈ 62.6 µM)	> 32	> 32	> 32	> 32	> 32	> 32	> 32	> 32	> 32	> 32	> 1.5	> 1.5	MIC [21]: 16 µg/mL (≈ 41.7 µM); MIC [22]: > 32 µg/mL; MIC [23]: > 32 µg/mL; MIC [24]: > 2 µg/mL; MIC [25]: > 2 µg/mL; MIC [26]: > 2 µg/mL; MIC [27]: 32 µg/mL (≈ 83.4 µM); MIC [28]: > 32 µg/mL; MIC [29]: > 32 µg/mL; MIC [30]: > 32 µg/mL; MIC [31]: 0.38 µg/mL (≈ 0.991 µM); MIC [32]: 0.38 µg/mL (≈ 0.991 µM); MIC [33]: 0.38 µg/mL (≈ 0.991 µM); MIC [34]: 0.38 µg/mL (≈ 0.991 µM); MIC [35]: 0.75 µg/mL (≈ 1.96 µM); MIC [36]: 0.75 µg/mL (≈ 1.96 µM); MIC [37]: 1.5 µg/mL (≈ 3.91 µM); MIC [38]: 0.38 µg/mL (≈ 0.991 µM); MIC [39]: 0.25 µg/mL (≈ 0.652 µM); MIC [40]: > 32 µg/mL
CN(C)c1cc(NC(=O)CNC(C)(C)C)c(O)c2c1C[C@H]1C[C@H]3[C@H](N(C)C)C(O)=C(C(N)=O)C(=O)[C@@]3(O)C(O)=C1C2=O [TIGECYCLINE]	1 (≈ 1.71 µM)	1 (≈ 1.71 µM)	1 (≈ 1.71 µM)	1 (≈ 1.71 µM)	1 (≈ 1.71 µM)	0.75 (≈ 1.28 µM)	0.75 (≈ 1.28 µM)	2 (≈ 3.41 µM)	3 (≈ 5.12 µM)	1 (≈ 1.71 µM)	1 (≈ 1.71 µM)	1 (≈ 1.71 µM)	0.5 (≈ 0.854 µM)	0.5 (≈ 0.854 µM)	0.5 (≈ 0.854 µM)	0.5 (≈ 0.854 µM)	0.5 (≈ 0.854 µM)	3 (≈ 5.12 µM)	0.75 (≈ 1.28 µM)	0.75 (≈ 1.28 µM)	MIC [21]: 1.5 µg/mL (≈ 2.56 µM); MIC [22]: 2 µg/mL (≈ 3.41 µM); MIC [23]: 1.5 µg/mL (≈ 2.56 µM); MIC [24]: 1 µg/mL (≈ 1.71 µM); MIC [25]: 1 µg/mL (≈ 1.71 µM); MIC [26]: 1 µg/mL (≈ 1.71 µM); MIC [27]: 0.19 µg/mL (≈ 0.324 µM); MIC [28]: 0.19 µg/mL (≈ 0.324 µM); MIC [29]: 0.19 µg/mL (≈ 0.324 µM); MIC [30]: 2 µg/mL (≈ 3.41 µM); MIC [31]: 0.5 µg/mL (≈ 0.854 µM); MIC [32]: 0.5 µg/mL (≈ 0.854 µM); MIC [33]: 0.5 µg/mL (≈ 0.854 µM); MIC [34]: 0.5 µg/mL (≈ 0.854 µM); MIC [35]: 0.25 µg/mL (≈ 0.427 µM); MIC [36]: 0.25 µg/mL (≈ 0.427 µM); MIC [37]: 0.25 µg/mL (≈ 0.427 µM); MIC [38]: 0.09 µg/mL (≈ 0.154 µM); MIC [39]: 0.25 µg/mL (≈ 0.427 µM); MIC [40]: 0.75 µg/mL (≈ 1.28 µM)
